Values of other authors in patent US20220160665A1, “COMPOSITION IN MICRO-ENCAPSULATED FORM, BASED ON N-BUTYRICACID OR DERIVATIVES THEREOF, FOR TREATING CROHNS DISEASE OR ULCERATIVE RECTAL COLITIS” (SILA S.R.L., priority 2019, published 2022).

Settings: solid granular form, white-coloured powder, commercially available

temperature up to which stable: up to 250 °C
Structure (SMILES): CCCC(=O)[O-].[Na+] [sodium salt of the n-butyric acid]
